Experimental findings from patent publication US20170258871A1, “COMBINED USE OF A TRKA INHIBITOR AND AN EPHA2 INHIBITOR FOR USING IN THE TREATMENT OF SOLID CANCERS, AND METHOD FOR THE PROGNOSIS OF SURVIVAL OF A PATIENT WHO HAS A SOLID CANCER” (UNIVERSITE DES SCIENCES ET TECHNOLOGIES DE LILLE, priority 2014, published 2017) are described below.

Data set [1] relates to EphA2. The experiment in a line: Western blot of EphA2 expression after siRNA. It is filed as cell-based. The settings on record: MDA-MB-231 HA-TrkA transfected with siEphA2. Here is the method: D. Cells MDA-MB-231 HA-TrkA were transfected with siEphA2 and then treated with proNGF N.C. (30 min). The recruitment of the sortilin and EphA2 was determined after anti-HA immunoprecipitation.
The sequences of siRNA used against EphA2 (siEphA2) at 100 pmol for each transfection, and against TrkA (pool of 3 siTrkA 1, 2 and 3) are given in table 1. The transfections of siRNA are produced by means of […]in™ according to the manufacturers instructions (POL409-10, Polyplus transfection, Ozyme, Saint Quentin en Yvelines, France).
After treatment, the cells were lysed (lysis buffer: 40 mM HEPES pH 7.5; 1 mM EDTA pH 8.0; 120 mM NaCl; 10 mM NaPPi; 50 mM NaF; 1.5 mM Na3VO4; 1% Triton X 100; 0.1% SDS; 1 mM PMSF; 10% glycerol and 1/100 th of protease inhibitor cocktail (Sigma) (20 min; 4° C.)). The lysates were recovered and clarified by centrifugation (12,000 g; 10 min; 4° C.). The supernatant was then stored at −80° C. until use. The protein extracts were diluted to 2 μg·μL−1 in a Laemmli 1× buffer (7 min; 100° C.) then deposited and separated on SDS-PAGE (concentration gel 3.6% acrylamide and separation gel 7.5% to 10% acrylamide (thickness 1 mm); 180 V; 10 min then 200 V constant; until output of the migration front). […] The membranes were placed in an image analyser (LAS 4000; Fuji) connected to a computer which allowed image generation (software Image Reader LAS 4000). […]

For data set [2], the system named is MDA-MB-231 HA-TrkA tumours. The experiment in a line: Xenograft of MDA-MB-231 HA-TrkA in SCID mice, tumour volume (Experiment 1). It counts as in vivo. To be noted: 3 injections every 3 days from day 14; CEP-701 10 mg/kg intraperitoneal, siEphA2 7.5 microg/mouse close to the tumour. Here is the method:
FIG. 9: A study of the inhibition of TrkA and EphA2 on tumour development in vivo. The tumours were developed without any intervention for 14 days and then subjected to 3 injections (every 3 days, black arrows) of solvent (control), CEP-701 (10 mg/kg), siEphA2 (7.5 microg/mouse) or CEP-701 (10 mg/kg) and siEphA2 (7.5 microg/mouse). The experiments were stopped 31 days after the first injection of the treatment for ethical considerations after the death of the control mice. A) The tumour volumes were evaluated by measuring the length (;) and the width (w) and then calculating the volume using the formula π/6×l×W×(l+w)/2; the Mann and Whitney test was carried out between the control group and CEP-701 (a), between the control groups and siEphA2 (b), between the control groups and CEP-701+siEphA2 (c), and between the groups siEphA2 and CEP-701+siEphA2 (d)*, P<0.05; **, P<0.01; ns: not significant. B) Study of the inhibition of the expression of receptors by siRNA on the overall survival of SCID mice. […] The tumour volumes were evaluated by measuring the length (l) and width (w) and then calculating the volume using the formula π/6×l×W×(l+w)/2. […] Significance was measured using the log-rank test (P=0.0022). […]
Experiment 1: the mice used were six-week old SCID females. […] The tumour volume was measured according to the following formula: π/6×length×width×(width+length)/2. […]

With “siEphA2: siRNA against EphA2, GCAAGGAAGUGGUACUGCUGGACUU (SEQ ID NO: 1) (listed as RNA, chemistry not given here)”, the “expression of EphA2 protein” value in data set [1] was “completely abolished the expression”. In data set [2], the “tumour volume / growth of xenografted tumours vs control” value was “strongly reduces the growth of xenografted tumours”.
